Here are results for 28 compounds from patent publication US8846684B2 (priority 2011, dated 2014).

Where two headings read alike, the source gives them in different places.

For the experiment, the system named is WEEV replicon. Briefly: microbe, parasite or virus in culture. The experiment is classed as cell-based, Western equine encephalitis virus. The note with it: Western equine encephalitis virus; for activity at 2 µM: read-out: Activity (% control LUC) 2 μM; for activity at 10 µM: read-out: Activity (% control LUC) 10 μM.
[1] abbreviates: read-out: Activity (% control LUC) 50 μM.
The mark [2] stands for this setting: read-out: 50 μM (% control) Luc.

What is called IC50 is the concentration needed to halve the response being measured.

`O=C(c1cc2ccccc2n1Cc1ccc(Cl)cc1)N1CCC(C(=O)N2CCCCC2)CC1` [CCG 203928, (1-(4-chlorobenzyl)-1H-indol-2-yl)(4-(piperidine-1-carbonyl)piperidin-1-yl)methanone]: the activity at 2 µM was found to be 95.1% and the activity at 10 µM worked out at 65.4%. Besides, the IC50 (read-out: Activity IC50 (μM)) came out at 8.1 µM. For the same compound, under setting [1], the activity at 50 µM was 3.4%.

With `O=C(NCc1ccccc1)C1CCN(C(=O)c2cc3ccccc3n2Cc2ccc(F)cc2)CC1` [CCG 203880, N-benzyl-1-(1-(4-fluorobenzyl)-1H-indole-2-carbonyl)piperidine-4-carboxamide], the activity at 2 µM turned out to be 134% and the activity at 10 µM came to 121%. Further, where the note is “read-out: Activity IC50 (μM)”, the IC50 stood at 25 µM. For the same compound, under setting [1], the activity at 50 µM came to 67%.

The compound `O=C(NCCc1ccncc1)C1CCN(C(=O)c2nc3ccccc3n2Cc2ccc(Cl)cc2)CC1` [CCG 206565, 1-(1-(4-chlorobenzyl)-1H-benzo[d]imidazole-2-carbonyl)-N-(2-(pyridin-4-yl)ethyl)piperidine-4-carboxamide] had a half-inhibitory concentration (IC50) of 4.07 µM. The activity at 50 µM under setting [2] came to 12%.

Regarding `O=C(NCc1cccc(Cl)c1)C1CCN(C(=O)c2cc3ccccc3n2Cc2ccc(Cl)cc2)CC1` [CCG 204043, N-(3-chlorobenzyl)-1-(1-(4-chlorobenzyl)-1H-indole-2-carbonyl)piperidine-4-carboxamide], the activity at 2 µM came out at 78.6% and the activity at 10 µM amounted to 60.9%. Further, the IC50 (read-out: Activity IC50 (μM)) was found to be 28.5 µM. Further, the activity at 50 µM under setting [1] is 53.6%.

In turn, `Cc1cccc2cc(C(=O)N3CCC(C(=O)NCc4ccccc4)CC3)n(Cc3ccc(Cl)cc3)c12` [CCG 206447, N-benzyl-1-(1-(4-chlorobenzyl)-7-methyl-1H-indole-2-carbonyl)piperidine-4-carboxamide] had an IC50 of 60.7 µM. Under setting [2], the activity at 50 µM worked out at 46.8%.

Consider `O=C(NCc1cccnc1)C1CCN(C(=O)c2cc3ccccc3n2Cc2ccc(Cl)cc2)CC1` [CCG 205422, 1-(1-(4-chlorobenzyl)-1H-indole-2-carbonyl)-N-(pyridin-3-ylmethyl)piperidine-4-carboxamide], for which inhibition was half-maximal at 11.4 µM (IC50). Further, the activity at 50 µM under setting [2] is 7.05%.

The compound `CN(Cc1ccccc1)C(=O)C1CCN(C(=O)c2cc3ccccc3[nH]2)CC1` [CCG 205400, N-benzyl-1-(1H-indole-2-carbonyl)-N-methylpiperidine-4-carboxamide] returned an IC50 of 27.7 µM. The activity at 50 µM under setting [2] was 29.1%.

`CN(C)C(=O)C1CCN(C(=O)c2cc3ccccc3n2Cc2ccc(Cl)cc2)CC1` [CCG 204022, 1-(1-(4-chlorobenzyl)-1H-indole-2-carbonyl)-N,N-dimethylpiperidine-4-carboxamide]: the activity at 2 µM came out at 87.3% and the activity at 10 µM amounted to 51.9%. The IC50 (read-out: Activity IC50 (μM)) is 10.4 µM. The activity at 50 µM under setting [1] amounted to 5.8%.

The compound `COc1ccc(Cn2c(C(=O)N3CCC(C(=O)N(C)Cc4ccccc4)CC3)cc3ccccc32)cc1` [CCG 205477, N-benzyl-1-(1-(4-methoxybenzyl)-1H-indole-2-carbonyl)-N-methylpiperidine-4-carboxamide] gave an IC50 of 16.5 µM. Under setting [2], the activity at 50 µM was 33.3%.

In turn, `CN(Cc1ccccc1)C(=O)C1CCN(C(=O)c2cc3ccccc3n2Cc2ccc(C#N)cc2)CC1` [CCG 206330, N-benzyl-1-(1-(4-cyanobenzyl)-1H-indole-2-carbonyl)-N-methylpiperidine-4-carboxamide] showed an IC50 of 79.3 µM. Besides, the activity at 50 µM under setting [2] came out at 45.2%.

Compound `Cc1ccc(CCNCC2CCN(C(=O)c3cc4ccccc4n3Cc3ccc(F)cc3)CC2)cc1` [CCG 206486, (1-(4-fluorobenzyl)-1H-indol-2-yl)(4-(((4-methylphenethyl)amino)methyl)piperidin-1-yl)methanone] returned an IC50 of 6.1 µM. Besides, under setting [2], the activity at 50 µM amounted to 0%.

On to `CN(Cc1ccccc1)C(=O)C1CCN(C(=O)c2cc3ccccc3n2Cc2ccccc2)CC1` [CCG 205404, N-benzyl-1-(1-benzyl-1H-indole-2-carbonyl)-N-methylpiperidine-4-carboxamide], for which the IC50 is 16.9 µM. The activity at 50 µM under setting [2] is 20.5%.

Consider `O=C(NCc1ccccc1)C1CCN(C(=O)c2nccn2Cc2ccc(Cl)cc2)CC1` [CCG 206586, N-benzyl-1-(1-(4-chlorobenzyl)-1H-imidazole-2-carbonyl)piperidine-4-carboxamide], for which the activity at 50 µM under setting [2] came out at 69.5%.

As for `O=C(c1cc2ccccc2n1Cc1ccc(F)cc1)N1CCC(C(O)c2ccccc2)CC1` (centres unmarked) [CCG 204056, (1-(4-fluorobenzyl)-1H-indol-2-yl)(4-(hydroxy(phenyl)methyl)piperidin-1-yl)methanone], the activity at 2 µM was 99.3% and the activity at 10 µM worked out at 71.7%. The concentration for half-maximal inhibition (IC50) (read-out: Activity IC50 (μM)) came out at 16 µM. Under setting [1], the activity at 50 µM came to 8.3%.

Take `O=C(NCc1ccccc1)C1CCCN(C(=O)c2cc3ccccc3n2Cc2ccc(Cl)cc2)C1` (centres unmarked) [CCG 205483, N-benzyl-1-(1-(4-chlorobenzyl)-1H-indole-2-carbonyl)piperidine-3-carboxamide]: the midpoint of inhibition, the IC50, lay at 30.6 µM. The activity at 50 µM under setting [2] was 44.1%.

Turning to `Cc1cccc(CNC(=O)C2CCN(C(=O)c3cc4ccccc4n3Cc3ccc(Cl)cc3)CC2)c1` [CCG 204042, 1-(1-(4-chlorobenzyl)-1H-indole-2-carbonyl)-N-(3-methylbenzyl)piperidine-4-carboxamide], the activity at 2 µM worked out at 93.7% and the activity at 10 µM was 59.5%. For the same compound, the IC50 (read-out: Activity IC50 (μM)) worked out at 9.8 µM. Also, under setting [1], the activity at 50 µM stood at 64.4%.

Turning to `O=C(c1cc2ccccc2n1Cc1ccc(Cl)cc1)N1CCC(C(=O)N2CCCC2)CC1` [CCG 102514, (1-(4-chlorobenzyl)-1H-indol-2-yl)(4-(pyrrolidine-1-carbonyl)piperidin-1-yl)methanone], the activity at 2 µM is 83.1% and the activity at 10 µM is 66.4%. For the same compound, the IC50 (read-out: Activity IC50 (μM)) came out at 23.8 µM. Also, under setting [1], the activity at 50 µM amounted to 10.5%.

In the case of `CC(=O)n1c(C(=O)N2CCC(C(=O)N(C)Cc3ccccc3)CC2)cc2ccccc21` [CCG 206333, 1-(1-acetyl-1H-indole-2-carbonyl)-N-benzyl-N-methylpiperidine-4-carboxamide], under setting [2], the activity at 50 µM was found to be 58.5%.

On to `O=C(NCCc1ccncc1)C1CCN(C(=O)c2cc3ccccc3n2Cc2ccc(Cl)cc2)CC1` [CCG 205432, 1-(1-(4-chlorobenzyl)-1H-indole-2-carbonyl)-N-(2-(pyridin-4-yl)ethyl)piperidine-4-carboxamide], for which half-maximal inhibition (IC50) required 0.53 µM. Besides, under setting [2], the activity at 50 µM was 3.75%.

The compound `CC(C)c1ccc(CCNC(=O)C2CCN(C(=O)c3cc4ccccc4n3Cc3ccc(Cl)cc3)CC2)cc1` [CCG 206461, 1-(1-(4-chlorobenzyl)-1H-indole-2-carbonyl)-N-(4-isopropylphenethyl)piperidine-4-carboxamide] came in with a half-inhibitory concentration (IC50) of 2.9 µM. For the same compound, the activity at 50 µM under setting [2] was determined as 32.6%.

For `CC(NC(=O)C1CCN(C(=O)c2cc3ccccc3n2Cc2ccc(Cl)cc2)CC1)c1ccncc1` (centres unmarked) [CCG 206329, 1-(1-(4-chlorobenzyl)-1H-indole-2-carbonyl)-N-(1-(pyridin-4-yl)ethyl)piperidine-4-carboxamide], the concentration for half-maximal inhibition (IC50) was 2.39 µM. Moreover, the activity at 50 µM under setting [2] amounted to 12.7%.

Consider `COC(=O)c1cccc(NC(=O)C2CCN(C(=O)c3cc4ccccc4n3Cc3ccc(Cl)cc3)CC2)c1` [CCG 204057, Methyl 3-(1-(1-(4-chlorobenzyl)-1H-indole-2-carbonyl)piperidine-4-carboxamido)benzoate], for which the activity at 2 µM worked out at 87.9% and the activity at 10 µM came out at 54%. Further, the IC50 (read-out: Activity IC50 (μM)) came out at 35.6 µM. Under setting [1], the activity at 50 µM was determined as 50.9%.

`O=C(NCCc1ccc(Cl)cc1)C1CCN(C(=O)c2cc3ccccc3n2Cc2ccc(Cl)cc2)CC1` [CCG 206400, 1-(1-(4-chlorobenzyl)-1H-indole-2-carbonyl)-N-(4-chlorophenethyl)piperidine-4-carboxamide] gave a half-maximal inhibitory concentration (IC50) of 7.45 µM. The activity at 50 µM under setting [2] came out at 28.6%.

The compound `O=C(c1cc2ccccc2n1Cc1ccc(Cl)cc1)N1CCC2C(=O)N(Cc3ccccc3)CC2C1` (centres unmarked) [CCG 206485, 2-benzyl-5-(1-(4-chlorobenzyl)-1H-indole-2-carbonyl)octahydro-1H-pyrrolo[3,4-c]pyridin-1-one] showed an IC50 of 17.1 µM. Also, under setting [2], the activity at 50 µM came to 39.4%.

On to `O=C(Nc1ccccc1)C1CCN(C(=O)c2cc3ccccc3n2Cc2ccc(Cl)cc2)CC1` [CCG 206334, 1-(1-(4-chlorobenzyl)-1H-indole-2-carbonyl)-N-phenylpiperidine-4-carboxamide], for which the activity at 50 µM under setting [2] was 77.3%.

Compound `O=C(NCCc1ccc(F)cc1)C1CCN(C(=O)c2cc3ccccc3n2Cc2ccc(Cl)cc2)CC1` [CCG 206396, 1-(1-(4-chlorobenzyl)-1H-indole-2-carbonyl)-N-(4-fluorophenethyl)piperidine-4-carboxamide] showed an IC50 of 10.6 µM. Besides, the activity at 50 µM under setting [2] was 34.9%.

Regarding `Cc1ccc(CCNC(=O)C2CCN(C(=O)c3cc4ccccc4n3Cc3ccc(Cl)cc3)CC2)cc1` [CCG 102518, 1-(1-(4-chlorobenzyl)-1H-indole-2-carbonyl)-N-(4-methylphenethyl)piperidine-4-carboxamide], the activity at 2 µM was determined as 83% and the activity at 10 µM came to 33.8%. The IC50 (read-out: Activity IC50 (μM)) turned out to be 4.2 µM. Also, the activity at 50 µM under setting [1] turned out to be 32.2%.

Compound `CN(Cc1ccccc1)C(=O)C1CCN(C(=O)c2cc3ccccc3n2Cc2ccc([N+](=O)[O-])cc2)CC1` [CCG 205484, N-benzyl-N-methyl-1-(1-(4-nitrobenzyl)-1H-indole-2-carbonyl)piperidine-4-carboxamide] registered a concentration for half-maximal inhibition (IC50) of 41.9 µM. For the same compound, the activity at 50 µM under setting [2] came to 54%.
